From ChEMBL document CHEMBL1154198, “Chemical genetics of Plasmodium falciparum” (Nature, 2010)

Experiments:
Plasmodium falciparum [1] = test: ST_JUDE: Plasmodium falciparum 3D7 EC50 (uM) as measured by SYBR green dye; assay type: functional, organism-based
Plasmodium falciparum [2] = test: ST_JUDE: Plasmodium falciparum K1 EC50 (uM) as measured by SYBR green dye; assay type: functional, organism-based

Row | SMILES | EC50 (Plasmodium falciparum [1]) | EC50 (Plasmodium falciparum [2])
1 | CCN(CC)CCNC(=O)c1ccc2c(c1)sc1nc(-c3ccc(F)cc3)cn12 | 0.974 µM | 1.92 µM
2 | CCCCc1ccc2nc(C)c(CN3CCC(C)CC3)c(O)c2c1 | > 15 µM | > 15 µM
3 | CCN1CCN(c2cc(C)c3cc(NC(=S)NCCCN4CCN(c5cccc(Cl)c5)CC4)ccc3n2)CC1 | 2.24 µM | 4.24 µM
4 | CCc1nnc(NC(=O)CCCOc2ccc(Cl)cc2)s1 | > 15 µM | > 15 µM
5 | CCc1ccc(Oc2c(C(F)(F)F)oc3c(CN4CCOCC4)c(O)ccc3c2=O)cc1 | > 15 µM | > 15 µM
6 | CN(C)c1ccc(N2C(N)=NC(N)=NC2(C)C)cc1 | 0.0728 µM | > 15 µM
7 | CCN1C=CC=C/C1=C/c1ccc2cc(C)ccc2[n+]1CC | 0.543 µM | 0.453 µM
8 | Cc1ccc(/C=C2\Oc3c(ccc(O)c3CN3CCCCC3)C2=O)cc1 | 2.89 µM | 0.28 µM
9 | Cc1cccc(-c2c3c(=O)n(C)c(=O)n(C)c3cn2-c2cc(Cl)ccc2O)c1 | > 15 µM | > 15 µM
10 | O=C(Cc1ccccc1)NC(c1ccc([N+](=O)[O-])cc1)c1c(O)ccc2ccccc12 (configuration not stated) | 6.31 µM | 5.77 µM
11 | CCc1ccc(CNCC(O)c2ccccc2)cc1 (configuration not stated) | 2.17 µM | 1.37 µM
12 | O=C(c1ccco1)N(Cc1ccccc1)c1cccc([N+](=O)[O-])c1 | > 15 µM | > 15 µM
13 | Cc1ccc2sc(NNC(=O)c3ccc(S(=O)(=O)N(C)C)cc3)nc2c1C | > 15 µM | 3.82 µM
14 | Cc1ccc2nc3c(cc(C(=O)NC(C)c4ccccc4)c(=N)n3CC3CCCO3)c(=O)n2c1 (configuration not stated) | > 15 µM | > 15 µM
15 | CSc1nnc(-c2cccc([N+](=O)[O-])c2)n1Cc1ccccc1 | 1.39 µM | 1.3 µM
16 | COc1ccc(CCNC(=S)Nc2ccccc2Cl)cc1Br | 0.96 µM | 1.6 µM
17 | CCc1c(C)nc(-n2nc(C)cc2NC(=O)c2ccc(C(C)(C)C)cc2)nc1O | > 15 µM | > 15 µM
18 | Oc1cccnc1NC(c1ccc(Cl)cc1)c1ccc2cccnc2c1O (configuration not stated) | 3.76 µM | 5.59 µM
19 | CC(=O)NC(c1cccs1)c1cc(Cl)c2cccnc2c1O (configuration not stated) | > 15 µM | 5.89 µM
20 | COC(=O)C1=CN(Cc2ccc(C)cc2)C=C(C(=O)OC)C1c1cc(OC)c(OC)c(OC)c1 | 4.49 µM | 5.49 µM
21 | CCN1CCN(CCCNC(=O)c2ccc3c(c2)sc2nc(-c4ccc(OC)cc4)cn23)CC1 | 0.577 µM | 1.56 µM
22 | Oc1cccc2ccc[n+](CC(O)Cn3c4ccccc4c4ccccc43)c12 (configuration not stated) | 1.31 µM | > 15 µM

Row | SMILES | EC50 (Plasmodium falciparum [1]) | EC50 (Plasmodium falciparum [2])
23 | CC(=O)NC(c1ccc(Cl)cc1Cl)c1ccc2cccnc2c1O (configuration not stated) | 3.22 µM | 3.01 µM
24 | COc1cccc(Nc2nc(NCC3CCCO3)c3ccccc3n2)c1 (configuration not stated) | 1.06 µM | 1.72 µM
25 | CCOC(=O)c1c(CSC(=N)N)n(-c2ccccc2)c2cc(Br)c(OC(C)=O)cc12 | 0.749 µM | 2.9 µM
26 | COc1cc(/C=C(\C#N)C(=O)Nc2ccccc2F)cc(OC)c1OC | > 15 µM | > 15 µM
27 | Cc1ccc(Cl)cc1NC(=O)c1c(-c2c(Cl)cccc2Cl)noc1C | 0.481 µM | 8.12 µM
28 | Cc1ccc(C(C)(C)C)c(OCCCCn2ccnc2)c1 | 6.66 µM | 5.68 µM
29 | COc1ccc(-c2nn(C)c3sc(C(=O)Nc4cccc(C(F)(F)F)c4)cc23)cc1OC | > 15 µM | > 15 µM
30 | COC(=O)c1c(S(=O)(=O)NCc2ccccc2)sc2c1CCN(Cc1ccc(OC)cc1)C2 | > 15 µM | > 15 µM
31 | CCO/C(O)=C1\C(C)=NC2=C(C(=O)CC(c3ccc(Cl)cc3)C2)C1c1ccc(O)c(OCC)c1 (configuration not stated) | 0.881 µM | 1.47 µM
32 | Cn1c(-c2ccc(F)cc2)[n+](C)c2ccccc21 | 1.88 µM | 3.79 µM
33 | CN(C)CCNc1nc(Cc2ccccc2)nc2sc3c(c12)CCCC3 | > 15 µM | > 15 µM
34 | COc1cccc(C2C(C(=O)Nc3ccccc3C)=C(C)Nc3nnnn32)c1 (configuration not stated) | > 15 µM | > 15 µM
35 | O=C(NCCc1cccc(C(F)(F)F)c1)Nc1cc(C(F)(F)F)ccc1Cl | 3.09 µM | 2.37 µM
36 | CCN(CC)CCN1C(=O)c2oc3ccccc3c(=O)c2C1c1cccc(Cl)c1 (configuration not stated) | 0.984 µM | 1.08 µM
37 | CCC1CCCCN1CC(O)COCCC12CC3CC(CC(C3)C1)C2 (configuration not stated) | 7.2 µM | 2.68 µM
38 | N#Cc1ccc(Cn2c(=O)n(CCCC(=O)NCc3ccccc3)c(=O)c3sccc32)cc1 | > 15 µM | > 15 µM
39 | COc1cccc(CNC(=O)C2c3ccccc3C(=O)N(CC(C)C)C2c2cccs2)c1 (configuration not stated) | 5.27 µM | 4.13 µM
40 | CCN(CC)c1ccc(C(NC(=O)C(C)C)c2ccc3cccnc3c2O)cc1 (configuration not stated) | 4.85 µM | 5.82 µM
41 | Cc1ccccc1CN1C(=O)CSc2ccc(C(=O)NCCC(C)C)cc21 | > 15 µM | > 15 µM
42 | CCOc1cc2c(cc1OCC)C(c1cc(Cl)c(O)c(OCC)c1)NCC2 (configuration not stated) | 3.01 µM | 1.76 µM
43 | O=C(c1cccc(Cl)c1)N1CCN(c2ccc([N+](=O)[O-])c(NC3CC3)c2)CC1 | 3.76 µM | 3.68 µM
44 | COc1ccc(-c2cnnc(N/N=C/c3ccc(O)cc3)n2)cc1 | > 15 µM | > 15 µM

Row | SMILES | EC50 (Plasmodium falciparum [1]) | EC50 (Plasmodium falciparum [2])
45 | CCN1/C(=C/c2sc3ccc(C(=O)OC)cc3[n+]2CC)C=Cc2cc(OC)ccc21 | 0.0668 µM | 0.154 µM
46 | CCn1c2ccccc2c2cc(CN3CCN(Cc4cc(OC)ccc4O)CC3)ccc21 | 2.84 µM | 1.22 µM
47 | Cc1nnc(NCCN2CCOCC2)nc1O | > 15 µM | > 15 µM
48 | Cc1cc(C)c2sc(NNC(=O)c3ccc(S(=O)(=O)N(C)C)cc3)nc2c1 | 5.94 µM | 4.89 µM
49 | Cc1c(C(=O)Nc2cc(Cl)ccc2Cl)cccc1[N+](=O)[O-] | > 15 µM | > 15 µM
50 | Oc1ccc(-c2nc(-c3ccc4oc5ccc(-c6[nH]c(-c7ccc(O)cc7)nc6-c6ccccc6)cc5c4c3)c(-c3ccccc3)[nH]2)cc1 | 8.11 µM | 2.99 µM
51 | O=C(CSc1nnc(-c2ccncc2)o1)Nc1ccccc1C(F)(F)F | > 15 µM | > 15 µM
52 | CCc1ccc(Oc2c(C(F)(F)F)oc3c(CN4CCCCC4)c(O)ccc3c2=O)cc1 | 1.61 µM | 0.558 µM
53 | COc1cc(NC(=O)COc2cc(C)c(Cl)c(C)c2)cc(OC)c1 | > 15 µM | > 15 µM
54 | Cc1ccccc1NC(=O)C1c2ccccc2C(=O)N2CCc3ccccc3C12 (configuration not stated) | 4.15 µM | > 15 µM
55 | Cc1c(C=O)c2ccccc2n1CC(=O)Nc1cccc(I)c1 | 3 µM | 3.03 µM
56 | Cc1ccc(N(CC(=O)NCCSc2ccc(Cl)cc2)S(=O)(=O)c2ccc(F)cc2)cc1 | > 15 µM | > 15 µM
57 | O=[N+]([O-])c1ccc(O)c(/N=C/C=C(\O)c2ccc(Cl)c(Cl)c2)c1 | > 15 µM | 1.65 µM
58 | O=C(CCNc1ccc(Oc2ccccc2)cc1)c1ccco1 | > 15 µM | > 15 µM
59 | CCOC(=O)c1ccc2nc(C)cc(Nc3ccc(N(C)C)cc3)c2c1 | 2.85 µM | 3.81 µM
60 | CCOC(=O)C1=C(C)N=c2s/c(=C\c3cc(Cl)ccc3O)c(=O)n2C1c1ccccc1 (configuration not stated) | > 15 µM | > 15 µM
61 | Oc1ccccc1Nc1nc(-c2cccnc2)nc2ccccc12 | > 15 µM | 2.1 µM
62 | COc1cc(/C=C(\C#N)c2nc3ccccc3[nH]2)cc(Br)c1OCC#N | > 15 µM | > 15 µM
63 | CCOC(=O)C(C)Sc1nc2ccccc2c(=O)n1CC1CCCCC1 (configuration not stated) | > 15 µM | > 15 µM
64 | CC[n+]1c(/C=C/c2ccc(N(C)C)cc2)sc2cc(NC(C)=O)ccc21 | 3.31 µM | 4.32 µM
65 | Cc1ccc(Nc2nc(NCc3ccccc3)c3ccccc3n2)cc1 | 0.754 µM | 3.6 µM
66 | CCC(=O)NC(c1ccc(OC)c(OC)c1)c1ccc2cccnc2c1O (configuration not stated) | 3.8 µM | 4.78 µM

Row | SMILES | EC50 (Plasmodium falciparum [1]) | EC50 (Plasmodium falciparum [2])
67 | COC(=O)CNC(c1ccccc1)c1cc(Br)ccc1NC(=O)c1ccccc1 (configuration not stated) | 6.83 µM | 6.06 µM
68 | CCCc1cc(O)nc(-n2nc(C)cc2NC(=O)c2ccc(Cl)cc2)n1 | > 15 µM | > 15 µM
69 | COc1cccc(NC2=C(N3CCCCC3)C(=O)c3ccccc3C2=O)c1 | 0.052 µM | 0.153 µM
70 | O=C(Nc1cccc(C(F)(F)F)c1)Nc1ccc(Cl)c(Cl)c1 | > 15 µM | 0.738 µM
71 | COc1ccccc1CNC(=O)C1c2ccccc2C(=O)N(CC(C)C)C1c1cccs1 (configuration not stated) | 3.16 µM | 3.7 µM
72 | CCN(CC)CCOc1ccc2c(c1)C(=NO)c1cc(OCCN(CC)CC)ccc1-2 | 1.49 µM | 2.27 µM
73 | CC(=O)N(C1=C(NCCO)C(=O)c2ccccc2C1=O)c1cccc(Br)c1 | 0.0171 µM | 0.0286 µM
74 | Oc1ccc(Br)cc1CN1CCN(Cc2ccccc2C(F)(F)F)CC1 | 1.88 µM | 0.45 µM
75 | Cc1ccc(Oc2nc(-c3ccncc3)nc3ccccc23)cc1 | 3.48 µM | 2.26 µM
76 | CCc1ccc(C(Nc2ccccn2)c2cc(Cl)c3cccnc3c2O)cc1 (configuration not stated) | 4.41 µM | > 15 µM
77 | Cc1cccc(-n2c(N)c(C#N)c3nc4ccccc4nc32)c1 | 4.2 µM | > 15 µM
78 | COCCn1c(SCC(=O)Nc2cc(C(F)(F)F)ccc2Cl)nc2c(c1=O)SC(C)C2 (configuration not stated) | > 15 µM | 0.568 µM
79 | CCOC(=O)c1ccc(NC(=O)Cc2csc(NC(=O)Nc3ccccc3)n2)cc1 | > 15 µM | > 15 µM
80 | CCc1ccccc1Nc1nc(-c2cccnc2)cs1 | > 15 µM | > 15 µM
81 | CCc1cc2c(=O)c(Oc3ccc(Cl)cc3)coc2cc1OC(C)=O | > 15 µM | > 15 µM
82 | CCCN1CCN(CCCNC(=O)c2ccc3c(c2)sc2nc(-c4ccc(C)cc4)cn23)CC1 | 2.02 µM | 4.65 µM
83 | O=C(Cc1ccc(Br)cc1)OCC(=O)c1ccc(F)cc1 | > 15 µM | > 15 µM
84 | CN(C)c1ccc(-c2n(C)c3ccccc3[n+]2C)cc1 | > 15 µM | 4.36 µM
85 | CCOc1ccc(/C=C2\Oc3c(ccc(O)c3CN(CC)CC)C2=O)cc1 | > 15 µM | 5.17 µM
86 | O=C(CC1N=C2c3ccccc3N=C(SCc3cccc(F)c3)N2C1=O)NCc1ccco1 (configuration not stated) | 2.31 µM | 2.01 µM
